Experimental data: patent US20170318812A1, “Plant and Crop Growth Regulating/Biostimulant Formulations and Methods of Use” (Arysta Lifescience North America, LLC, priority 2014, published 2017)
“And” between values parts separate entries of the source, which are not always exact repeats. Identical values can stand only once.

Tested on: TRZAX Triticum aestivum (Soft wheat)
Experiment: Ipfencarbazone biostimulant effect, early post emergence foliar application, greenhouse pots, plant height: wheat
Format: in vivo
Details: for HEIGHT, percent of untreated check (APoC) / HEIGHT, treatment mean: TRZAX BRS327
Excerpt: The original objective of this Example was to evaluate the herbicidal effect of ipfencarbazone when applied as a post emergent treatment to a range of selected crops and weeds. Unexpectedly, crop plant growth stimulation was observed. The actual species of weeds and crops are listed in the summary data tabulated below and in FIGS. 1-13. By convention each plant species has a Bayer code (5-letter name) with the scientific name for the plant referenced in FIGS. 1-13. In each Figure, each tray contains the same configuration of weeds and/or crops. In each Figure there is one replication of each treatment (six treatments in total). The top three photographs in each Figure show the Bayer Codes and bottom three photographs are aligned with the top three facilitating viewing of the same plant species. Throughout the Examples various abbreviations as conventional shorthand notation and will be appreciated by those skilled in the art. Some exemplary abbreviations include, “CV”=Co-efficient of Variation,” “LSD”=Least Significant Difference” (G/L (gram per L) AND GA/L (gram of active ingredient per L); “SC”=suspension concentrate formulation. The diluent in all treatments was water. By convention factors that are identical in all treatments (e.g. diluent and surfactant) are not listed in each treatment.
Methods: The indicated size pots (see Tables below) are filled with a specific soil, the soil properties being indicated below. The referenced crops and weeds are planted by hand in each pot. […] The experiments include six treatments each replicated three times on each crop/weed species. At a specific time after emergence each crop and weed species was treated with ipfencarbazone plus a non-ionic surfactant (NIS). In the present Example, the surfactant employed was ENERGIC™ (non-ionic surfactant). The application timing is indicated in each of the Tables (1 or 2 leaf stage) below. Ipfencarbazone plus surfactant was diluted in water and applied at a rate equivalent to about 250 L/ha. Ipfencarbazone was applied using a track sprayer. After treatment, the pots were randomized in a greenhouse. At each assessment (indicated by “days after treatment” or DAT) the height of each plant was measured. The letters next to each mean indicate the level of statistical significance.
Replications: 3, Untreated treatments: 1, Design: Randomized Complete Block (RCB), Treatment units: Treated ‘Plot’ experimental unit size, Dry Form. Unit: %, Treated ‘Plot’ experimental unit size Width: 1 meter, Treated ‘Plot’ experimental unit size Length: 1.4 meters, Application volume: 250 L/ha, Mix size: 0.15 liters, […]

[1] = Soft wheat BRS327, 15 DA-A, 62.5 g ai/ha + Energic NIS 0.2 % v/v
[2] = Soft wheat BRS327, 15 DA-A, 250 g ai/ha + Energic NIS 0.2 % v/v
[3] = Soft wheat BRS327, 15 DA-A, 1000 g ai/ha + Energic NIS 0.2 % v/v
[4] = Soft wheat BRS327, 28 DA-A, 62.5 g ai/ha + Energic NIS 0.2 % v/v
[5] = Soft wheat BRS327, 28 DA-A, 125 g ai/ha + Energic NIS 0.2 % v/v
[6] = Soft wheat BRS327, 28 DA-A, 250 g ai/ha + Energic NIS 0.2 % v/v
[7] = Soft wheat Iguaçú, 15 DA-A, 62.5 g ai/ha + Energic NIS 0.2 % v/v
[8] = Soft wheat Iguaçú, 15 DA-A, 250 g ai/ha + Energic NIS 0.2 % v/v
[9] = Soft wheat Iguaçú, 15 DA-A, 500 g ai/ha + Energic NIS 0.2 % v/v
[10] = Soft wheat Iguaçú, 15 DA-A, 1000 g ai/ha + Energic NIS 0.2 % v/v
[11] = Soft wheat Iguaçú, 28 DA-A, 62.5 g ai/ha + Energic NIS 0.2 % v/v
[12] = Soft wheat Iguaçú, 28 DA-A, 125 g ai/ha + Energic NIS 0.2 % v/v
[13] = Soft wheat Iguaçú, 28 DA-A, 250 g ai/ha + Energic NIS 0.2 % v/v
[14] = Soft wheat Iguaçú, 28 DA-A, 500 g ai/ha + Energic NIS 0.2 % v/v
[15] = Soft wheat Itaipú, 15 DA-A, 125 g ai/ha + Energic NIS 0.2 % v/v
[16] = Soft wheat Itaipú, 15 DA-A, 250 g ai/ha + Energic NIS 0.2 % v/v
[17] = Soft wheat Itaipú, 15 DA-A, 1000 g ai/ha + Energic NIS 0.2 % v/v
[18] = Soft wheat Itaipú, 28 DA-A, 125 g ai/ha + Energic NIS 0.2 % v/v
[19] = Soft wheat Itaipú, 28 DA-A, 250 g ai/ha + Energic NIS 0.2 % v/v

Structure (SMILES): CC(C)N(C(=O)n1cnn(-c2ccc(Cl)cc2Cl)c1=O)c1ccc(F)cc1F [ARY-0572-001, ipfencarbazone]
- Plant HEIGHT, Mean [1]: 27.2 cm
- Plant HEIGHT, single plots [1]: 25.0 cm and 30.8 cm and 25.7 cm
- Plant HEIGHT, Mean (Soft wheat BRS327, 15 DA-A, 125 g ai/ha + Energic NIS 0.2 % v/v): 27.6 cm
- Plant HEIGHT, Mean [2]: 32.0 cm
- Plant HEIGHT, single plots [2]: 31.0 cm and 32.3 cm and 32.7 cm
- Plant HEIGHT, Mean (Soft wheat BRS327, 15 DA-A, 500 g ai/ha + Energic NIS 0.2 % v/v): 24.4 cm
- Plant HEIGHT, Mean [3]: 17.3 cm
- Plant HEIGHT, single plots [3]: 23.3 cm and 11.7 cm and 17.0 cm
- Plant HEIGHT, Mean [4]: 33.0 cm
- Plant HEIGHT, single plots [4]: 27.7 cm and 43.3 cm and 28.0 cm
- Plant HEIGHT, Mean [5]: 35.0 cm
- Plant HEIGHT, single plots [5]: 49.0 cm and 24.7 cm and 31.3 cm
- Plant HEIGHT, Mean [6]: 45.6 cm
- Plant HEIGHT, single plots [6]: 45.7 cm and 46.0 cm and 45.0 cm
- Plant HEIGHT, Mean (Soft wheat BRS327, 28 DA-A, 500 g ai/ha + Energic NIS 0.2 % v/v): 31.6 cm
- Plant HEIGHT, Mean (Soft wheat BRS327, 28 DA-A, 1000 g ai/ha + Energic NIS 0.2 % v/v): 28.2 cm
- Plant HEIGHT, Mean [7]: 24.6 cm
- Plant HEIGHT, single plots [7]: 20.2 cm and 28.0 cm and 25.7 cm
- Plant HEIGHT, Mean (Soft wheat Iguaçú, 15 DA-A, 125 g ai/ha + Energic NIS 0.2 % v/v): 26.1 cm
- Plant HEIGHT, Mean [8]: 29.9 cm
- Plant HEIGHT, single plots [8]: 28.3 cm and 30.7 cm and 30.8 cm
- Plant HEIGHT, Mean [9]: 23.8 cm
- Plant HEIGHT, single plots [9]: 30.3 cm and 18.7 cm and 22.3 cm
- Plant HEIGHT, Mean [10]: 16.3 cm
- Plant HEIGHT, single plots [10]: 22.3 cm and 14.0 cm and 12.7 cm
- Plant HEIGHT, Mean [11]: 29.2 cm
- Plant HEIGHT, single plots [11]: 24.0 cm and 36.3 cm and 27.3 cm
- Plant HEIGHT, Mean [12]: 30.1 cm
- Plant HEIGHT, single plots [12]: 39.7 cm and 20.7 cm and 30.0 cm
- Plant HEIGHT, Mean [13]: 43.3 cm
- Plant HEIGHT, single plots [13]: 39.7 cm and 50.3 cm and 40.0 cm
- Plant HEIGHT, Mean [14]: 36.8 cm
- Plant HEIGHT, single plots [14]: 47.0 cm and 27.7 cm and 35.7 cm
- Plant HEIGHT, Mean (Soft wheat Iguaçú, 28 DA-A, 1000 g ai/ha + Energic NIS 0.2 % v/v): 18.7 cm
- Plant HEIGHT, Mean (Soft wheat Itaipú, 15 DA-A, 62.5 g ai/ha + Energic NIS 0.2 % v/v): 23.8 cm
- Plant HEIGHT, Mean [15]: 25.5 cm
- Plant HEIGHT, single plots [15]: 33.3 cm and 19.8 cm and 23.3 cm
- Plant HEIGHT, Mean [16]: 31.4 cm
- Plant HEIGHT, single plots [16]: 30.7 cm and 31.3 cm and 32.3 cm
- Plant HEIGHT, Mean (Soft wheat Itaipú, 15 DA-A, 500 g ai/ha + Energic NIS 0.2 % v/v): 22.2 cm
- Plant HEIGHT, Mean [17]: 15.7 cm
- Plant HEIGHT, single plots [17]: 22.0 cm and 13.0 cm and 12.0 cm
- Plant HEIGHT, Mean (Soft wheat Itaipú, 28 DA-A, 62.5 g ai/ha + Energic NIS 0.2 % v/v): 37.1 cm
- Plant HEIGHT, Mean [18]: 32.3 cm
- Plant HEIGHT, single plots [18]: 45.0 cm and 23.3 cm and 28.7 cm
- Plant HEIGHT, Mean [19]: 47.8 cm
- Plant HEIGHT, single plots [19]: 45.0 cm and 46.7 cm and 51.7 cm
- Plant HEIGHT, Mean (Soft wheat Itaipú, 28 DA-A, 500 g ai/ha + Energic NIS 0.2 % v/v): 24.0 cm
- Plant HEIGHT, Mean (Soft wheat Itaipú, 28 DA-A, 1000 g ai/ha + Energic NIS 0.2 % v/v): 18.4 cm
- HEIGHT, percent of untreated check (APoC) (62.5 g ai/ha, 15 DA-A): (145.5%)
- HEIGHT, treatment mean (62.5 g ai/ha, 15 DA-A): 27.2a cm
- HEIGHT, percent of untreated check (APoC) (62.5 g ai/ha, 28 DA-A): (147.8%)
- HEIGHT, treatment mean (62.5 g ai/ha, 28 DA-A): 33.0 a cm
- HEIGHT, percent of untreated check (APoC) (125 g ai/ha, 15 DA-A): (147.6%)
